Data from patent US20230337677A1, “ARYL AND PYRIDYL AMIDE PESTICIDES AND COMPOSITIONS THEREOF” (University of Florida Research Foundation, Incorporated, priority 2019, published 2023).
Where two headings read alike, the source gives them in different places.

What was measured:
[1] = test system: Aedes aegypti mosquitoes, insecticide-susceptible Orlando strain; test: whole plant or invertebrate; settings: 24 h, read-out: 24 h % Mortality, 100 μg/cm^2
[2] = test system: Aedes aegypti mosquitoes, insecticide-susceptible Orlando strain; format: in vivo; settings: for 1 h % Repellency, 100 μg/cm^2: screened at 100 μg/cm^2, strain not given; for 1 h Repellency EC50, μg/cm^2: (OR); for vapor repellency / mortality, statement in words (Example 8): structure-activity analysis of Table 2; for knockdown in 1 hr repellency test (XXkd = number of insects incapacitated out of 16 females): 100 μg/cm^2
Method: The tubes as shown were held horizontally on the bench.
For assessing behavioral repellency (FIG. 1), Aedes aegypti mosquitoes were used from the insecticide-susceptible Orlando strain and the pyrethroid-resistant Puerto Rico strain. Sixteen female mosquitoes were transferred to a glass tube (12.5 cm long, 2.5 cm outer diameter) with the ends covered with netting. Each compound was dissolved in 1 mL of acetone and serial dilutions ranging from 30-0.01 μg/ml were made. Circular filter papers (5 cm^2) were saturated with 50 μL of each concentration and allowed 10 min for solvent evaporation. The filter papers were then placed in clear conical polypropylene caps and fixed to the end of the glass tubes. The netting prevented mosquito contact with the filter paper. The tubes were then aligned with a mark denoting the midline and the proportion of mosquitoes on the chemically treated side was scored for up to 60 min. At the end of the test, the tube was placed in a cage and the ability of the mosquitoes to fly out of the tube was assessed for 30 min. […] This post-test evaluated whether any non-responding mosquitoes (not repelled) resulted from intoxication or disorientation from the test chemical. For assessment of lethality, insects were held for 24 hr under constant exposure in glass tubes having treated filter papers.
Compounds were first screened at 100 μg/cm^2 for repellency and 24 h mortality.

[3] = test system: Aedes aegypti mosquitoes, insecticide-susceptible Orlando strain
[4] = test system: Aedes aegypti strain Orlando (sensitive); test: Topical toxicity (24 hour mortality), Ae. aegypti Orlando; format: in vivo; settings: topical application, 24 h mortality, female adults, susceptible Orlando strain
Method: (§1) The Aedes aegypti strains Orlando (sensitive) as well as the Puerto Rico (PR, resistant to permethrin) were used. The Anopheles gambiae (G3 sensitive strain, as well as Akron kdr (Akdr) strain, resistant to pyrethroids were also assessed. The larvae were provided by the USDA, Gainesville Fl, and raised in a pan with tap water maintained at 28° C. Larvae were fed a ground liver and yeast mixture, and pupae were placed in emergence cages. Adults were held at 28° C. and provided with cotton balls soaked in 10% sugar water for rearing and for all bioassays.
(§2) Female adults from 3 to 6 days were used for the experiments. The drug was dissolved in ethanol and then applied with a micro-applicator on the thorax, between the legs: 200 nL of drug per female mosquito, with different concentrations of the drug; 10 mosquitos were treated together per concentration per replicate, and put together in a small container with free access to sweet water. Mortality, i.e. no visible movement, was assessed 24 hours after treatment. Every compound was assessed on at least 3 different cohorts of mosquitoes, and the LD50 values and slopes were determined with Probit analysis, corrected with Abbott's formula.

[5] = test system: Anopheles gambiae G3 sensitive strain; test: Topical toxicity (24 hour mortality), An. gambiae G3; format: in vivo; settings: topical application, 24 h mortality, female adults, susceptible strain G3
Method: as §1, §2

[6] = screened at 100 μg/cm^2, 24 h, strain not given

Compound | mortality at 100 µg/cm2 [1] [%] | 1 h % Repellency, 100 μg/cm^2 [2] [%] | other results
O=C(Nc1ccccc1C(F)(F)F)C(F)(F)C(F)(F)F [MTFI-2-1B] | 0 | 38 | 
C#C[C@@H]1[C@@H](C(=O)Nc2cc(F)cc(F)c2)C1(C)C [GMR180] | 14.3 | −24 | 
O=C(c1c(F)c(F)c(F)c(F)c1F)n1nnc2ccccc21 [MT2018-0314-01] | 0 | 32 | 
CN(C(=O)C(F)(F)C(F)(F)C(F)(F)F)c1cc(F)c(F)c(F)c1 [GMR113] | 6 | 0 | 
CCCC(=O)Nc1c(Cl)cncc1Cl [GMR132] | 28 | 4 | 
CCCCC(=O)Nc1ccccc1OC(F)(F)F [MTFI-5-8B] | 13 | 96 | 1 h Repellency EC50, μg/cm^2 [2]: 11 μg/cm^2
O=C(Nc1cccc(C(F)(F)F)c1)c1c(F)c(F)c(F)c(F)c1F [MT2018-0316-01] | 0 | 24 | vapor repellency / mortality, statement in words (Example 8) [2]: poor results
O=C(Nc1cc(F)c(F)c(F)c1F)C(F)(F)C(F)(F)C(F)(F)F [MTFI-5-4E] | 6 | 56 | 
C=CCCC(=O)Nc1ccccc1C(F)(F)F [MTFI-5-5D] | 6 | 56 | 
CN(C(=O)C(F)(F)C(F)(F)OC(F)(F)F)c1cc(Cl)nc(Cl)c1 [GMR106] |  |  | 24 h % Mortality, 100 μg/cm^2 ([3]; in vivo): 100%; knockdown in 1 hr repellency test (XXkd = number of insects incapacitated out of 16 females) [2]: 2; Ae. aegypti OR LD50 [4]: 846 ng/mg; An. gambiae G3 LD50 [5]: >1000 ng/mg
CCC(=O)Nc1cccc(OC(F)(F)F)c1 [GMR160] | 16 | 42 | 1 h Repellency EC50, μg/cm^2 [2]: 123 μg/cm^2
Cc1ccccc1C(=O)Nc1cc(C(F)(F)F)cc(C(F)(F)F)c1 [MTFI-3-1E] | 7 | 6 | vapor repellency / mortality, statement in words (Example 8) [2]: poor results
C=CC(=O)Nc1ccccc1NC(=O)C=C [GMR024] | 3 | 0 | vapor repellency / mortality, statement in words (Example 8) [2]: reduced repellency and poor toxicity
O=S(=O)(Nc1c(Cl)cc(C(F)(F)F)cc1Cl)C(F)(F)F [MTFI-5-10A] | 0 | 0 | 
O=C(Nc1ccc(F)cc1)C(F)(F)C(F)(F)F [GMR189] |  | 42 | 24 h LC50, μg/cm^2 ([3]; 24 h, LC50 (OR)): 35.3 μg/cm^2; 24 h % Mortality, 100 μg/cm^2 [3, 6]: 94%; 1 h Repellency EC50, μg/cm^2 [2]: 4.5 μg/cm^2
O=C(CC1CC1)Nc1cccc(C(F)(F)F)c1 [MTFI-5-6C] | 0 | 50 | 
CCCC(=O)Nc1cc(F)c(F)c(F)c1 [GMR144] |  | 62 | 24 h % Mortality, 100 μg/cm^2 [3, 6]: 38%
CN(C(=O)C(F)(F)C(F)(F)OC(F)(F)F)c1cc(F)c(F)c(F)c1 [GMR114] | 6 | 0 | 
O=C(CCl)Nc1cccc(C(F)(F)F)c1 [MTFI-2-2A] |  | 50 | 24 h % Mortality, 100 μg/cm^2 [3, 6]: 3%
CC(=O)Nc1ccccc1C(F)(F)F [MTFI-3-2A] | 22 | 80 | 
CCCCCCCCCC(=O)Nc1ccccc1OC(F)(F)F [GMR184] |  | −8 | 24 h % Mortality, 100 μg/cm^2 [3, 6]: 2%
O=C(Cc1c(F)c(F)c(F)c(F)c1F)Nc1cccc(C(F)(F)F)c1 [MT2018-0316-02] | 0 | 6 | 

Compound | mortality at 100 µg/cm2 [1] [%] | 1 h % Repellency, 100 μg/cm^2 [2] [%] | other results
CCC(=O)Nc1c(Cl)cncc1Cl [GMR131] |  | −4 | 24 h % Mortality, 100 μg/cm^2 [3, 6]: 6%
O=C(CCC1CCCCC1)Nc1ccccc1C(F)(F)F [MTFI-3-2F] |  | 18 | 24 h % Mortality, 100 μg/cm^2 [3, 6]: 25%
O=C(CBr)Nc1ccccc1C(F)(F)F [MTFI-5-5E] | 60 | 62 | 
CCCCC(=O)Nc1cccc(OC(F)(F)F)c1 [MTFI-5-9A] |  | 50 | 24 h % Mortality, 100 μg/cm^2 [3, 6]: 0%
O=C(Cc1c(F)c(F)c(F)c(F)c1F)n1nnc2ccccc21 [MT2018-0314-02] | 0 | 6 | 
CC(SC(F)(F)F)C(=O)Nc1ccc(F)cc1 (centres unmarked) [GMR197] | 0 | 30 | 
O=C(Nc1cc(F)c(F)c(F)c1F)C(F)F [MTFI-5-4A] | 0 | 68 | 
CCOC(=O)Nc1ccccc1C(F)(F)F [GMR020] |  | 16 | 24 h % Mortality, 100 μg/cm^2 [3, 6]: 9%
CCCCCCCCCCC(=O)Nc1ccccc1C(F)(F)F [MTFI-2-1F] | 0 | 6 | 
O=C(Nc1cc(F)c(F)c(F)c1)C(F)(F)C(F)(F)OC(F)(F)F [compound 51] |  |  | 24 h LC50, μg/cm^2 ([3]; Table 3A): 14.94 μg/cm^2; 24h % mortality ([3]; Table 3A, Screened at μg/cm^2): 100%; 1h EC50 (μg/cm^2) ([2]; Table 3A): 3.09 μg/cm^2; 1h % repellency ([2]; Table 3A, Screened at μg/cm^2): 100%
CC(=O)Nc1c(Cl)cncc1Cl [GMR130] | 81 | 34 | 
CC(C)(C)c1cccc(NC(=O)CCl)c1 [MTFI-5-7A] |  | 6 | 24 h % Mortality, 100 μg/cm^2 [3, 6]: 0%
O=C(CCSC(F)(F)F)Nc1ccc(F)cc1 [GMR198] | 0 | 8 | 
O=C(CCC1CCCCC1)Nc1cc(C(F)(F)F)cc(C(F)(F)F)c1 [MTFI-3-1D] |  | 6 | 24 h % Mortality, 100 μg/cm^2 [3, 6]: 7%
CC(C)CC(=O)Nc1cc(F)c(F)c(F)c1 [GMR141] |  | 16 | 24 h % Mortality, 100 μg/cm^2 [3, 6]: 19%
CC1(C)[C@H](C=C(Cl)Cl)[C@H]1C(=O)Nc1cc(F)c(F)c(F)c1 [GMR148] | 6 | 12 | 
O=C(Nc1ccc(F)cc1)C(F)(F)Sc1ccc(F)cc1 [GMR196] | 0 | 18 | 
CCCCC(=O)Nc1ccccc1CCCC [MTFI-5-8A] | 6 | 38 | 
CC(=O)Nc1cc(F)c(F)c(F)c1 [GMR142] | 66 | 50 | 
COCc1c(F)c(F)c(COC(=O)[C@@H]2[C@@H](C=C(Cl)Cl)C2(C)C)c(F)c1F [GMR146] |  |  | 24 h % Mortality, 100 μg/cm^2 ([3]; in vivo): 100%; 24 h LC50, μg/cm^2 ([3]; in vivo): 1 μg/cm^2; knockdown in 1 hr repellency test (XXkd = number of insects incapacitated out of 16 females) [2]: 15
O=C(Nc1cc(F)c(F)c(F)c1)C(F)(F)C(F)(F)F [GMR135] |  | 74 | 24 h LC50, μg/cm^2 ([3]; 24 h, LC50 (OR)): 21.6 μg/cm^2; 24 h % Mortality, 100 μg/cm^2 [3, 6]: 100%; 1 h Repellency EC50, μg/cm^2 [2]: 22.1 μg/cm^2; Ae. aegypti OR LD50 [4]: 1792 ng/mg
